Reference: BindingDB's records for patent US20230286943 (Sanofi, 2023)
pIC50: −log10 of the molar value.

Target: T1, Interleukin-17A (Homo sapiens, UniProt Q16552)
T1 sequence (Q16552 whole entry): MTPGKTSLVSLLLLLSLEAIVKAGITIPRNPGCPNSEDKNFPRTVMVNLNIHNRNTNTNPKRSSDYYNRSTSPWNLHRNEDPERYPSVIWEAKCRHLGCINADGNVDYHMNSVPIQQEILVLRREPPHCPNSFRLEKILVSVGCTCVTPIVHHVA
Test: AlphaLISA Assay
Experimental: The ability of the compounds to block binding of IL-17A to its receptor, IL-17RA, was analysed in a competition assay using AlphaLISA technology (Perkin Elmer). The assay is a bead based AlphaLISA where the IL-17RA is captured on the acceptor bead via an Fc tag and IL-17A is captured on the streptavidin donor bead via a biotinylated anti-IL-17A antibody.Assay buffer was prepared by adding 0.05% Tween-20 (v/v) and 0.1% BSA to Phosphate Buffered Saline (PBS). The assay was carried out in 384-well white low volume plates (Corning 4512). 10 μL of a 7.5 nM stock of human recombinant IL-17A (R&D Systems 7955-IL/CF) diluted in assay buffer was dispensed into the assay plate and compounds or DMSO vehicle control were added in a volume of 75 nL using a D300 dispenser (Hewlett Packard). The compounds were pre-incubated with the IL-17A for 24 h at room temperature (or for 30 min, where indicated by * in Table A below) prior to addition of 5 μL of a 5 nM stock of human recombinant IL-17RA/Fc chimera (R&D Systems 177-IR-100) diluted in assay buffer. […] The luminescence signal was measured using an Enspire plate reader (Perkin Elmer) with excitation at 680 nm and emission at 615 nm. Data were analysed using GraphPad Prism and fitted to a 4-parameter logistic equation.

**Q.** Cc1nnc(C)n1-c1ccc(NC(=O)[C@@H](NC(=O)c2ccnn2C)C2CCCCCC2)nc1 [US20230286943, Example 62] was tested. Which pIC50 did it give?
**A.** 6.10
